The text below walks through data of patent US5518735A, “Meta-substituted phenylalanine derivatives” (priority 1990, dated 1996).

Data set [1] deals with T1, plasma kallikrein (Homo sapiens, UniProt P03952).
T1 construct: glandular kallikrein, factor XIIa and plasma kallikrein
Briefly: Inhibition of plasma kallikrein (Ki). To be noted: Table 26. It is filed as biochemical.

The nature of data set [2]: Plasma concentration in rats after oral administration (HPLC). The settings on record: rat, plasma, po, 100 mg/kg.
Description: (§1) For the pharmacokinetic characterization, the plasma concentration of selected derivatives was determined in rats after intravenous (i.v.), subcutaneous (s.c.) and peroral (p.o.) application according to the following three-step procedure:
(§2) 1. A physiological NaCl solution of the substance to be tested was submitted to high pressure liquid chromatography (HPLC) in order to determine its characteristic substance-specific retention time with the chosen test conditions.
(§3) 2. The substance to be tested was diluted in vitro in rat plasma. This solution was also submitted to HPLC to see whether the characteristic peak of the substance once again appeared at the substance-specific retention time.
(§4) 3. […] Blood samples were taken at time intervals of 15 minutes, from which plasma samples were prepared by centrifugation; those samples were also submitted to HPLC to see whether the characteristic peak of the substance appeared again at the substance-specific retention time.
For data set [3], the target named is tPA (Homo sapiens, UniProt P00750). Briefly: Inhibition of tPA (Ki). To be noted: Table 26. It counts as biochemical.
Data set [4] is described as follows: in vivo. The settings on record: mouse.
Data set [5] concerns the target T2, factor XIIa (Homo sapiens, UniProt P00748).
T2 construct: glandular kallikrein, factor XIIa and plasma kallikrein
T2 sequence (P00748 373-615 limits assumed): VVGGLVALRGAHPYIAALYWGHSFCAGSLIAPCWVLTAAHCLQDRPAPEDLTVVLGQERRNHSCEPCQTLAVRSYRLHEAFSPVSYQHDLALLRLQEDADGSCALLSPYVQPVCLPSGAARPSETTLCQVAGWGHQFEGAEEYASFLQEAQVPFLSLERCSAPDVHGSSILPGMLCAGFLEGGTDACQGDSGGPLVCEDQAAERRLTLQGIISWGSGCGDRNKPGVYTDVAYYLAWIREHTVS
Kind of data set: Inhibition of factor XIIa (Ki). It counts as biochemical. To be noted: Table 26.

A short description of data set [6]: Plasma concentration in rats after intravenous administration (HPLC). To be noted: for Concentration in plasma: i.v. 1 mg/kg.
Description: as §1, §2, §3, §4
Data set [7] has as its target factor Xa (Bos taurus, UniProt P00743). Briefly: Inhibition of factor Xa (dissociation constant Ki). It is filed as biochemical. The settings on record: Tables 19-25; read-out: Ki, Factor Xa.
Data set [8] addresses glandular kallikrein (Sus scrofa, UniProt P00752). Kind of data set: Inhibition of glandular kallikrein (Ki). To be noted: Table 26; read-out: Ki, Gland. Kallikrein. It is filed as biochemical.
A short description of data set [9]: Plasma concentration in rats after subcutaneous administration (HPLC). To be noted: rat.
Description: as §1, §2, §3, §4
The target in data set [10] is thrombin (Bos taurus, UniProt P00735). Kind of data set: Inhibition of thrombin (dissociation constant Ki). It is filed as biochemical.
The target of data set [11] is T3, plasmin (Homo sapiens, UniProt P00747).
T3 construct: trypsin and the related enzymes thrombin, plasmin, factor Xa, tPA
Briefly: Inhibition of plasmin (Ki). It is filed as biochemical. The settings on record: Table 26.

Data set [12] deals with T4, trypsin (Bos taurus, UniProt P00760).
T4 sequence (P00760 24-246): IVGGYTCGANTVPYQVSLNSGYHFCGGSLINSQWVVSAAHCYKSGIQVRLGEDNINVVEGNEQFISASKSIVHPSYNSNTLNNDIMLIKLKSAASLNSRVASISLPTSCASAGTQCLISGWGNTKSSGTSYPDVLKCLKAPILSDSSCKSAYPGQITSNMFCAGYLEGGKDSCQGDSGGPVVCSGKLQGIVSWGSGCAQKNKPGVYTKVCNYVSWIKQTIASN
Kind of data set: Inhibition of trypsin (Ki). It is filed as biochemical. To be noted: Table 26.

Counter-ions that a name gives are not always drawn.

Chain of glandular kallikrein (P00752 8-246): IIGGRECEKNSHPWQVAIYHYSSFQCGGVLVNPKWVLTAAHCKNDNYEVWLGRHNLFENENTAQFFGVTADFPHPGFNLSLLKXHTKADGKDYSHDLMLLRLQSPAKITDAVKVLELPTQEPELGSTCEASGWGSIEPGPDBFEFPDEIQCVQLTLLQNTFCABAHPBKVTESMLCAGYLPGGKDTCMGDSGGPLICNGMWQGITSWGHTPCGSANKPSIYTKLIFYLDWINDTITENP
T1 sequence (P03952 391-638 limits assumed, species assumed): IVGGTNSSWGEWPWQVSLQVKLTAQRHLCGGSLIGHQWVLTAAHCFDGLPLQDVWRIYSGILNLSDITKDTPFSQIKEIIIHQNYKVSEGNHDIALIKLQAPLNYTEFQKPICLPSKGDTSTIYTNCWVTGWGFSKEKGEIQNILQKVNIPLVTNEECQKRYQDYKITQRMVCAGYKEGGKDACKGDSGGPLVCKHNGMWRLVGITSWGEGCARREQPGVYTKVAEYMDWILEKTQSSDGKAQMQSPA
T1 sequence (P03952 20-390 partner limits assumed, species assumed): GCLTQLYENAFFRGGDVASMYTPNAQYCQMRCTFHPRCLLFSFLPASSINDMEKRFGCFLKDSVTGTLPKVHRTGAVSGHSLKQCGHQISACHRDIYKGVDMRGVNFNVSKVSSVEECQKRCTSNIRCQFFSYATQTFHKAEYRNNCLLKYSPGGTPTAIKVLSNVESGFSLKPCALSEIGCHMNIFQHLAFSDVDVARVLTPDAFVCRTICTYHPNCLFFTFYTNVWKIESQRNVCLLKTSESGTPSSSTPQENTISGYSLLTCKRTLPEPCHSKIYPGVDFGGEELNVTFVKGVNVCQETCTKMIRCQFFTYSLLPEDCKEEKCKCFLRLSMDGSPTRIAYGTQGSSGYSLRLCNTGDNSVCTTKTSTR
T3 sequence (P00747 581-810 limits assumed): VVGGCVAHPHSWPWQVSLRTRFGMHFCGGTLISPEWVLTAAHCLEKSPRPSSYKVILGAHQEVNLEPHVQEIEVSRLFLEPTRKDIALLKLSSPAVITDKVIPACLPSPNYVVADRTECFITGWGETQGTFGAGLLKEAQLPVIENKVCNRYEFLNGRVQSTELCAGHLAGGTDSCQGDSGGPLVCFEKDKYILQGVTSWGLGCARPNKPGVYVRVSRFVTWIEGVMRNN
T3 sequence (P00747 97-580 partner limits assumed): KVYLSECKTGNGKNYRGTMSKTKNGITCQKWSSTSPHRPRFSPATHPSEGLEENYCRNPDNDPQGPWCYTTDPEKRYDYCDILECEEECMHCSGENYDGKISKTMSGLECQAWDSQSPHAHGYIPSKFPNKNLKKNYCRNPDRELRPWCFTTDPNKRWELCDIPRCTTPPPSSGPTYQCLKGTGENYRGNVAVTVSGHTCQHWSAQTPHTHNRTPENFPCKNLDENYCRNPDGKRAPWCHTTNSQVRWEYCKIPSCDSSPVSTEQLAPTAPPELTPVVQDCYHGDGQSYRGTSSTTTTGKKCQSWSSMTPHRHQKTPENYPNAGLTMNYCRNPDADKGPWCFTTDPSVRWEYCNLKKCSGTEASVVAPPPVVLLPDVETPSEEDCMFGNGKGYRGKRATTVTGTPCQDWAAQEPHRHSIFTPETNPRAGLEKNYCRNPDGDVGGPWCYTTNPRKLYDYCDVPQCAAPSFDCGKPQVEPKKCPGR
Chain of factor Xa (P00743 234-492 limits assumed): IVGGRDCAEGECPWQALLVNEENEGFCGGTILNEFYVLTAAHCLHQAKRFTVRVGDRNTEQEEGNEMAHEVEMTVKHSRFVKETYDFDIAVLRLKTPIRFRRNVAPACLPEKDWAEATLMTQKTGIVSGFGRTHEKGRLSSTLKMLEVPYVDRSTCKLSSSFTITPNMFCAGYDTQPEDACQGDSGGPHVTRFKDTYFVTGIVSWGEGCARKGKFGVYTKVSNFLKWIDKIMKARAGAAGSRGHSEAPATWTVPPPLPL
Chain of factor Xa (P00743 41-180 partner limits assumed): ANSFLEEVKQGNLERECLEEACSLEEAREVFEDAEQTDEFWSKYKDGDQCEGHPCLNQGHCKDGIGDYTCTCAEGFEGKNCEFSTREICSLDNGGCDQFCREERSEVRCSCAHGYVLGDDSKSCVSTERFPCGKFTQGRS
Chain of tPA (P00750 36-562): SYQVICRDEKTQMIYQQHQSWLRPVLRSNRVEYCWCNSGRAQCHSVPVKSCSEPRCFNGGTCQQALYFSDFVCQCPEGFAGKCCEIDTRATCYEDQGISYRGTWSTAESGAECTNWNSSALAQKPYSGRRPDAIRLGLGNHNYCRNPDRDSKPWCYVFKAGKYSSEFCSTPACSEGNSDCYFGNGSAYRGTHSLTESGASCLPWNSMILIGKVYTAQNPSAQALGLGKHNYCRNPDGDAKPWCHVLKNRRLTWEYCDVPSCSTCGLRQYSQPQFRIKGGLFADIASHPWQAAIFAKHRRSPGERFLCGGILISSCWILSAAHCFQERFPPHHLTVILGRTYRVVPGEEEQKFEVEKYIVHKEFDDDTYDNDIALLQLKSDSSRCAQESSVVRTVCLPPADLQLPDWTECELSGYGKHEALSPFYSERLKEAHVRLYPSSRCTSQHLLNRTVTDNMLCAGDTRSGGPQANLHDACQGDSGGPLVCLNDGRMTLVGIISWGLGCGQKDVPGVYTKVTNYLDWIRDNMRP

`N=C(N)c1cccc(CC(NS(=O)(=O)c2ccc3ccccc3c2)C(=O)N2CCCCC2C(=O)O)c1` (racemic) [Compound 83] displayed a Ki in data set [1] of 32 µM. Moreover, in [2], the concentration at 0.25 h is 133 ng/mL, the concentration at 0.5 h stood at 79 ng/mL, the concentration at 1 h is 50 ng/mL and the concentration at 1.5 h stood at 37 ng/mL. In data set [2], this compound came in with a concentration at 2 h of 38 ng/mL, a concentration at 3 h of 25 ng/mL and a concentration at 4 h of 23 ng/mL. For the same compound, in data set [3], the affinity corresponds to a Ki of 205 µM. The same compound yielded an LD50 at 168 h in data set [4] (iv) of 272 mg/kg. Also, in data set [4] (po), the LD50 at 168 h was > 3000 mg/kg. In data set [5], the Ki was > 1000 µM. Besides, in data set [6] (in words, compared with NAPAP), the pharmacokinetic properties entry is reported as “improved pharmacokinetic properties”. In addition, the Concentration in plasma in [6] (rat, 120 min) is 0 ng/mL. The compound further returned a Concentration in plasma in [6] (rat, 180 min) of 0 ng/mL. In data set [6] (rat, plasma, iv, 1 mg/kg), this compound registered a concentration at 2 min of 1900 ng/mL, a concentration at 5 min of 928 ng/mL, a concentration at 10 min of 496 ng/mL and a concentration at 0.25 h of 243 ng/mL. In data set [6] (rat, plasma, iv, 1 mg/kg), this compound yielded a concentration at 0.5 h of 150 ng/mL, a concentration at 0.75 h of 115 ng/mL, a concentration at 1 h of 85 ng/mL and a concentration at 1.5 h of 45 ng/mL. Also, the Ki in data set [7] stood at 38 µM. The Ki in [8] is ~1000 µM. In data set [9] (plasma, sc, 5 mg/kg), this compound yielded a concentration at 0.25 h of 402 ng/mL, a concentration at 0.5 h of 620 ng/mL, a concentration at 0.75 h of 626 ng/mL and a concentration at 1 h of 568 ng/mL. Also, in data set [9] (plasma, sc, 5 mg/kg), the concentration at 1.5 h came to 467 ng/mL, the concentration at 2 h is 415 ng/mL, the concentration at 3 h amounted to 314 ng/mL and the concentration at 4 h came out at 297 ng/mL. This compound showed a Ki in [10] of 0.26 µM. In data set [11], the Ki was 34 µM.
`CC1CCN(C(=O)C(Cc2cccc(C(=N)N)c2)NS(=O)(=O)c2ccc3ccccc3c2)C(C(=O)O)C1` (racemic) [Compound 86]: the Ki in [1] is 84 µM; in [3], 470 µM; in data set [5], > 1000 µM; in data set [7], 96 µM; in data set [8], > 1000 µM; in data set [12], 1.2 µM. The Ki came to 0.12 µM in data set [10] and 42 µM in [11].
Take `COC(=O)C1CCCCN1C(=O)C(Cc1cccc(C(=N)N)c1)NS(=O)(=O)c1ccc2ccccc2c1` (racemic) [Compound 94]: the Ki in data set [1] was 35 µM; in [3] it was 220 µM; in data set [5] it was 500 µM; in data set [7], 46 µM; in data set [8] it was > 1000 µM; in data set [10] it was 0.07 µM. In data set [11], this compound came in with a Ki of 10.5 µM.
Consider `N=C(N)c1cccc(CC(NS(=O)(=O)c2ccc3ccccc3c2)C(=O)N2Cc3ccccc3CC2C(=O)O)c1` (racemic) [Compound 134, N-α-(2-Naphtylsulfonyl)-3-amidino-(D,L)-phenylalanyl-1,2,3,4-tetrahydroisoquinoline-3-carboxylic acid], for which, in data set [1], the Ki is 1.5 µM. In addition, in [2], the concentration at 0.25 h worked out at 188 ng/mL, the concentration at 0.5 h was 260 ng/mL, the concentration at 0.75 h amounted to 297 ng/mL and the concentration at 1 h was found to be 260 ng/mL. Further, in data set [2], the concentration at 2 h was determined as 234 ng/mL, the concentration at 3 h was 236 ng/mL, the concentration at 4 h stood at 210 ng/mL and the concentration at 5 h turned out to be 157 ng/mL. Besides, in data set [2], the concentration at 6 h stood at 86 ng/mL. Also, in [3], the Ki was > 1000 µM. This compound displayed an LD50 at 168 h in data set [4] (iv) of 29 mg/kg. Further, the LD50 at 168 h in data set [4] (po) was > 3000 mg/kg. For the same compound, the Ki in data set [5] is > 1000 µM. The compound also gave a Concentration in plasma in [6] (rat, 90 min) of 0 ng/mL. In data set [6] (rat, plasma, iv, 1 mg/kg), this compound returned a concentration at 2 min of 4440 ng/mL, a concentration at 5 min of 1680 ng/mL, a concentration at 10 min of 775 ng/mL and a concentration at 0.25 h of 621 ng/mL. In data set [6] (rat, plasma, iv, 1 mg/kg), this compound gave a concentration at 0.5 h of 79 ng/mL, a concentration at 0.75 h of 78 ng/mL and a concentration at 1 h of 10 ng/mL. In addition, in data set [7], the Ki came to 42 µM. For the same compound, the Ki in data set [8] came to 390 µM. In data set [9] (plasma, sc, 5 mg/kg), this compound gave a concentration at 0.5 h of 35 ng/mL, a concentration at 0.75 h of 72 ng/mL, a concentration at 1 h of 79 ng/mL and a concentration at 1.5 h of 92 ng/mL. In data set [9] (plasma, sc, 5 mg/kg), this compound showed a concentration at 2 h of 145 ng/mL, a concentration at 3 h of 285 ng/mL, a concentration at 4 h of 268 ng/mL and a concentration at 5 h of 248 ng/mL. This compound also returned a Concentration in plasma in data set [9] (s.c. 5 mg/kg, 15 min) of 0 ng/mL. The compound also displayed an inhibition constant (Ki) in [10] of 0.018 µM. The compound further gave a Ki in [11] of 0.67 µM.
Regarding `CC1CCN(C(=O)C(Cc2cccc(C(=N)N)c2)NC(=O)CNS(=O)(=O)c2ccc3ccccc3c2)CC1` (racemic) [Compound 156, N-α-(2-Naphthylsulfonyl)-glycyl-3-amidino-(D,L)-phenylalanine-4-methylpiperidide], the Ki in [1] was 68 µM; in [3] it was 340 µM; in [5] it was 350 µM; in data set [7] it was 25 µM; in data set [8] it was > 1000 µM; in data set [12] it was 46 µM. Moreover, the Ki came out at 3.6 µM in [10] and 46 µM in data set [11].
Turning to `CC1CCN(C(=O)C(Cc2cccc(C(=N)N)c2)NS(=O)(=O)c2cccc3cccnc23)CC1` (racemic) [Compound 171, N-α-(8-quinolinesulfonyl)-3-amidino-(D,L)-phenylalanine-4-methylpiperidide hydroiodide], the Ki is > 1000 µM in data set [1]; > 1000 µM in [3]; 780 µM in data set [5]; 180 µM in data set [7]; 260 µM in data set [8]; 0.34 µM in [10]. Besides, in [11], the Ki stood at 100 µM.
Turning to `CC1CCN(C(=O)C(Cc2cccc(CN)c2)NS(=O)(=O)c2ccc3ccccc3c2)CC1` (racemic) [Compound 182, N-α-(2-Naphthylsulfonyl)-3-aminomethyl-(D,L)-phenylalanyl-4-methylpiperidide], the inhibition constant (Ki) in data set [1] is > 1000 µM; in data set [3] it was > 1000 µM; in [5], < 1000 µM; in [7], 500 µM; in [8] it was 76 µM; in data set [12], 3.4 µM. Further, the Ki in data set [10] turned out to be 1.9 µM; in [11], 27 µM.
For the compound `CC1CCN(C(=O)C(Cc2cccc(N)c2)NS(=O)(=O)c2ccc3ccccc3c2)CC1` (racemic) [Compound 203], the Ki in data set [1] was > 1000 µM; in [3] it was > 1000 µM; in data set [5], 270 µM; in data set [7] it was 210 µM; in [8] it was > 1000 µM; in data set [12], > 1000 µM. The Ki in data set [10] is 8.9 µM; in [11], > 1000 µM.
For `N=C(N)Nc1cccc(CC(NS(=O)(=O)c2ccc3ccccc3c2)C(=O)N2CCCCC2)c1` (racemic) [Compound 207, N-α-(2-Naphthylsulfonyl)-3-quanidino-(D,L)-phenylalanine-piperidide hydrochloride], the Ki is > 1000 µM in data set [1]; > 1000 µM in data set [3]; > 1000 µM in data set [5]; 107 µM in data set [7]; > 1000 µM in [8]; 4.1 µM in [12]. For the same compound, the Ki in [10] is 0.4 µM; in [11], 17 µM.
Regarding `COC(=O)[C@H]1CCCN1C(=O)[C@H](Cc1cccc(C(=N)N)c1)NS(=O)(=O)c1ccc2ccccc2c1` [Compound 124, N-α-(2-Naphthylsulfonyl)-3-amidino-(L)-phenylalanyl-(D)-proline-methyl ester hydrochloride], the Ki in data set [1] is 29 µM; in [3], 225 µM; in [5], 600 µM; in data set [7], 104 µM; in data set [8], > 1000 µM; in data set [12], 3.4 µM. The Ki in data set [10] is 0.27 µM; in data set [11], 11 µM. Further, the figures for the LD50 at 168 h in data set [4] (iv) and in data set [4] (po) were 80 mg/kg and > 3000 mg/kg, respectively.
As for `COC(=O)[C@H](Cc1cccc(C(=N)N)c1)NC(=O)CNS(=O)(=O)c1ccc(C)cc1` [TAPAM, Nα-tosylglycyl-3-amidinophenylalanine methyl ester, reference compound], the Ki in data set [1] is 15 µM; in data set [3] it was 27 µM; in data set [5] it was 180 µM; in data set [8], 890 µM; in data set [11] it was 160 µM. For the same compound, the LD50 at 168 h was 103 mg/kg in [4] (iv) and > 1000 mg/kg in [4] (po).

As a reminder, the Ki is the equilibrium dissociation constant of an inhibitor or competing ligand from its target. In general, LD50 refers to the dose expected to kill half of the subjects tested. Higher therefore signals a less toxic substance.
